Literature values as cited in patent US20130338198A1, “COMPOSITION FOR TREATING DERMATITIS AND ICHTHYOSIS, AND METHOD FOR TREATING DERMATITIS AND ICHTHYOSIS” (Skinvisible Pharmaceuticals, Inc., priority 2010, published 2013).

Details: in vivo

Row | Substance | dermal toxicity
1 | Poly(vinylpyrrolidone/1-hexadecene) [PVPH] | no demonstrable dermal toxicity
2 | Poly(vinylpyrrolidone/1-eicosene) [PVPE] | no demonstrable dermal toxicity
